In publication PMC3277506, “Extra-Renal Elimination of Uric Acid via Intestinal Efflux Transporter BCRP/ABCG2” (PLoS ONE, 2012):
Read-outs that look alike come from different tables or passages of the source. Blank lines part the entries; values can stand above or below the molecule they belong to.

Tests used:
rBcrp [1] = molecular target: T1, rBcrp (Rattus norvegicus, UniProt Q80W57); assay: [14C]uric acid uptake by rBcrp-expressing membrane vesicles; format: biochemical; set-up: purchased GenoMembrane Inc. (Yokohama, Japan); host or cells: Sf9 cells; conditions: [14C]uric acid uptake by vesicles, inhibitor concentrations only in Fig. 2C
T1 sequence (Q80W57 1-657): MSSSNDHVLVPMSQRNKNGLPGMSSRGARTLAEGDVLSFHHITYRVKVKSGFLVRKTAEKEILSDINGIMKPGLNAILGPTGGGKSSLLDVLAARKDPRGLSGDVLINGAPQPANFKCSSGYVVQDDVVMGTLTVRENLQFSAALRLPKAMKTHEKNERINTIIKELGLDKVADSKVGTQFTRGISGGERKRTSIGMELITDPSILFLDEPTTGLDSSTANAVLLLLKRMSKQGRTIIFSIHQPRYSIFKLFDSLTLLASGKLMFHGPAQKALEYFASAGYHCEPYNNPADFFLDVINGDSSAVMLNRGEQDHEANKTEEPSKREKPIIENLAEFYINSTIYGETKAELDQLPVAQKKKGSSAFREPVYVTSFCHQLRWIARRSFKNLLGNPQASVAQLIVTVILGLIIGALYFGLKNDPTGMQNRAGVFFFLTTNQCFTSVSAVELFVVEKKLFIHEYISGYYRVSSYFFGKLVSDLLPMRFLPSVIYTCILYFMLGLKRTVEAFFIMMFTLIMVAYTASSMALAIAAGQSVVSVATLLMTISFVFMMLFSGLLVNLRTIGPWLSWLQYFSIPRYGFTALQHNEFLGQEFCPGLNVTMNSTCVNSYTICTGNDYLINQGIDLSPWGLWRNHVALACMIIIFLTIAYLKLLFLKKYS
Procedure: hBCRP/rBcrp, hMRP2/rMrp2, or hMDR1-expressing membrane vesicles prepared from Sf9 cells were purchased from GenoMembrane Inc. (Yokohama, Japan). Uptake experiments were conducted as described previously. Briefly, after a pre-incubation for 5 min at 37°C, membrane vesicles (50 µg protein/50 µL final reaction volume) were incubated for 5 min at 37°C in the presence of 4 mM ATP or AMP in assay buffer (1 M KCl, 1 M MgCl2, and 100 mM MOPS-Tris, pH 7.0) containing [^14C]uric acid (1 µCi/mL). The uptake reaction was terminated by adding 1 mL ice-cold washing buffer (1 M KCl, and 100 mM MOPS-Tris, pH 7.0) to the membrane solution, and the mixture was rapidly filtered through a nitrocellulose filter (0.45 µm pore size, Millipore, Bedford, MA). The filters were washed twice with 5 mL ice-cold washing buffer. The filters were dried and dissolved in Clearsol-I for quantitation of radioactivity.

Caco-2 cells = assay: Bidirectional transcellular transport of [14C]uric acid in Caco-2 cells; format: in vitro ADME, human; conditions: elacridar 2 µM, Ko143 1 µM, verapamil 100 µM, MK571 10 µM
Procedure: Caco-2 cells were obtained from the American Type Culture Collection (Rockville, MD). Caco-2 cells were cultured in Dulbecco's modified Eagle's medium (D-MEM) (Invitrogen, Carlsbad, CA) supplemented with 10% (v/v) fetal bovine serum (Invitrogen), 100 units/mL benzylpenicillin, 100 µg/mL streptomycin, 1% (v/v) MEM non-essential amino acid solution (Invitrogen) at 37°C under an atmosphere of 5% CO2 in air. For bidirectional transport studies, Caco-2 cells were cultured on Transwell filter membrane inserts (BD Falcon, surface area 0.9 cm^2 and pore size 3 µm) at a density of 6.4×10^4 cells/cm^2 for 21 days before use for each experiment. […] Inhibitor was added to only apical side. Transport of [^14C]uric acid was measured in two directions, namely apical (AP)-to-basal (BL) and BL-to-AP directions. An aliquot of transport buffer was obtained from the donor side at 5 min for measurement of initial concentration, and from the receiver side at 30, 60, 90 and 120 min. Transport studies were performed at 37°C and pH 7.4.
The apparent permeability (Papp, cm/sec) of [^14C]uric acid across the cell monolayer was calculated using the following equation: [drawing 4] where Q is the amount of [^14C]uric acid transported over time t. Cd is the initial concentration in the donor side and A is the surface area of membrane.

rBcrp [2] = molecular target: T1, rBcrp; assay: Effect of elacridar on intestinal secretion of uric acid, in situ intestinal closed loop method, oxonate-treated rats; format: in vivo; conditions: for Intestinal secretory clearance of uric acid, % of that in elacridar-untreated rats: 10 µM elacridar (Fig. 1A); for Intestinal secretory clearance of uric acid in the presence of elacridar: 10 µM elacridar, oxonate-treated rats
Procedure: We evaluated intestinal secretion of endogenous uric acid according to the method described previously, with some modifications. Rats were anesthetized with 50% urethane and treated with oxonate by the same method as in the in vivo animal study described above. Intestinal closed loops were made at different segments: jejunum (10 cm), ileum (10 cm), and colon (3–5 cm). Phosphate-buffered solution (PB, 0.075 M NaH2PO4 - 0.075 M Na2HPO4, pH 6.5) or inhibitor-containing PB was injected into the intestinal loop. After 60 min, the remaining luminal content in each loop was washed out and collected for quantitation. Blood was obtained from the jugular vein at 1, 20, 40 and 60 min. Plasma was obtained by centrifugation and used for quantitation.
The following equation was used to calculate intestinal secretory clearance (µL/min/cm loop) and estimated total intestinal secretory clearance (CLintestine, estimated) (mL/min): [drawing 1] [drawing 2] [drawing 3] where A is the amount of uric acid secreted into the intestinal lumen of each loop for 60 min, L is the length of the intestine, and AUC is area under the plasma concentration-time curve.

[3] = cited from earlier work
[4] = substrate: O=c1[nH]c(=O)c2[nH]c(=O)[nH]c2[nH]1; assay: [14C]uric acid uptake by rBcrp-expressing membrane vesicles; format: biochemical, rat; conditions: other: ATP-dependent uptake, maximum uric acid concentration 5 mM; pH 7.0; 37.0 °C

Molecule: COc1ccc2c3c([nH]c2c1)[C@H](CC(C)C)N1C(=O)[C@H](CCC(=O)OC(C)(C)C)NC(=O)[C@@H]1C3 [Ko143, reference compound]
Inhibition of rBcrp-mediated transport of uric acid (rBcrp [1]): strongly inhibited
Effect on polarized transport of uric acid across Caco-2 cell monolayer (Caco-2 cells): significantly reduced

Molecule: COc1cc2c(cc1OC)CN(CCc1ccc(NC(=O)c3cccc4c(=O)c5cccc(OC)c5[nH]c34)cc1)CC2 [elacridar]
Inhibition of rBcrp-mediated transport of uric acid (rBcrp [1]): strongly inhibited
Effect on polarized transport of uric acid across Caco-2 cell monolayer (Caco-2 cells): significantly reduced
Intestinal secretory clearance of uric acid, % of that in elacridar-untreated rats (rBcrp [2]; colon): 30%
Intestinal secretory clearance of uric acid in the presence of elacridar (rBcrp [2]; colon): 0.23±0.04 µL/min/cm loop
Ileal secretion of uric acid, % of the control (rBcrp [2]; ileum, 0.1 µM elacridar (Fig. 3A)): 53%
Intestinal secretory clearance of uric acid, % of that in elacridar-untreated rats (rBcrp [2]; ileum): 52%
Intestinal secretory clearance of uric acid in the presence of elacridar (rBcrp [2]; ileum): 0.82±0.12 µL/min/cm loop
Intestinal secretory clearance of uric acid, % of that in elacridar-untreated rats (rBcrp [2]; jejunum): 55%
Intestinal secretory clearance of uric acid in the presence of elacridar (rBcrp [2]; jejunum): 0.27±0.04 µL/min/cm loop

Molecule: C[C@]12CC[C@@H]3c4ccc(OS(=O)(=O)O)cc4CC[C@H]3[C@@H]1CCC2=O [estrone-3-sulfate]
Inhibition of rBcrp-mediated transport of uric acid (rBcrp [1]): strongly inhibited

Molecule: CCCCc1nc(Cl)c(CO)n1Cc1ccc(-c2ccccc2-c2nn[nH]n2)cc1 [losartan]
Effect on SUA level ([3]; drugs in clinical use): decrease

Molecule: CO[C@H]1/C=C/O[C@@]2(C)Oc3c(C)c(O)c4c(O)c(c(/C=N/N5CCN(C)CC5)c(O)c4c3C2=O)NC(=O)/C(C)=C\C=C\[C@H](C)[C@H](O)[C@@H](C)[C@@H](O)[C@@H](C)[C@H](OC(C)=O)[C@@H]1C [rifampicin]
Inhibition of rBcrp-mediated transport of uric acid (rBcrp [1]): moderately

B1: rBcrp (Rattus norvegicus) (protein)
chain: T1 sequence (Q80W57 1-657)
notes: purchased GenoMembrane Inc. (Yokohama, Japan); host or cells: Sf9 cells
Km [4]: 12.5 ± 0.77 mM

Continued, in another order:

Effect on polarized transport of uric acid across Caco-2 cell monolayer (Caco-2 cells): significantly reduced
Molecule: CN(C)C(=O)CCSC(SCCC(=O)O)c1cccc(/C=C/c2ccc3ccc(Cl)cc3n2)c1 (centres unmarked) [MK571, reference compound]

Inhibition of rBcrp-mediated transport of uric acid (rBcrp [1]): not affected
Molecule: CC(C(=O)O)c1cccc(C(=O)c2ccccc2)c1 (centres unmarked) [ketoprofen]

Inhibition of rBcrp-mediated transport of uric acid (rBcrp [1]): not affected
Molecule: O=C(O)c1ccccc1O [salicylic acid]
Effect on SUA level ([3]; high dose): decrease
Effect on SUA level ([3]; low dose): increase
